# Source: patent US20140349340A1, “MBTH-LIKE PROTEINS IN THE PRODUCTION OF SEMI SYNTHETIC ANTIBIOTICS” (DSM SINOCHEM PHARMACEUTICALS NETHERLANDS B.V., priority 2012, published 2014)
# What was measured:
# Assay type in all cases: biochemical
# [1] = PPi release assay, adenylation activity with L-phenylalanine; details: substrate L-phenylalanine
# Description: (§1) These assays use inorganic pyrophosphatases to convert PPi produced during aminoacyl-AMP formation to orthophosphate (Pi). To measure Pi concentrations some of these assays use molybdate/malachite green reagent for colorimetric detection (McQuade et al. 2008) or, as used in the context of the present invention, a shift in absorbance maximum by conversion of 7-methyl-6-thioguanosine (MESG) by purine nucleoside phosphorylase (Ehmann D. E. et al. (Proc. Natl. Acad. Sci. (2000) 97, 2509-2514) or Daniel & Aldrich (Anal. Biochem. (2010) 404, 56-63)).
# (§2) To determine the adenylation activity of the adenylation domains, the Enzchek® pyrophosphate assay kit (Life Technologies) was used as described by Ehmann D. E. et al. (Proc Nat Acad Science (2000) 97, 2509-2514) with small modifications. The reactions were performed 96 wells UV/Vis transparent plates (BD Falcon). The reaction mixture comprises 50 mM HEPES pH 8.0, 10 mM MgCl2, 5 mM ATP, 75 mM DTT, 0.03 U Inorganic Pyrophosphatase (IP), 1 U Purine Nucleoside Phosphorylase (PNP) and 0.2 mM MESG in a volume of 70 μl. Next 20 μl (around 0.5-2 μM final concentration) of purified A(T) domain, with or without co-purification of the MbtH like helper protein was added and the reaction was pre-incubated for 15 minutes at RT to reduce contaminating Pi. Following the pre-incubation, 10 μl of a 10 mM or 1 mM solution of the appropriate amino acid depending on the performed specificity determination was added to initiate the adenylation reaction and the absorbance at 360 nm was measured using a TECAN I Control spectrophotometer. Absorbance measurements were made every 5 to 10 min over a period of up to 240 min. A reaction with addition of 10 μl MilliQ water instead was used to determine and subtract the background absorbance. As substrates the following amino acids were used: D- or L-phenylalanine, D- or L-hydroxyphenylglycine, D- or L-phenylglycine, L-tryptophan, L-valine, L-cysteine, and L-leucine.
# [2] = PPi release assay, adenylation activity with D-hydroxyphenylglycine
# Description: as §1, §2
# [3] = PPi release assay, adenylation activity with L-hydroxyphenylglycine; details: for adenylation activity (absorption 360 nm, PPi release assay) / adenylation activity (PPi release assay): substrate L-hydroxyphenylglycine
# Description: as §1, §2
# [4] = PPi release assay, adenylation activity with D-phenylalanine; details: substrate D-phenylalanine
# Description: as §1, §2
# [5] = PPi release assay, adenylation activity with L-phenylglycine; details: for Formed PPi: substrate L-PG 1 mM
# Description: as §1, §2
# [6] = PPi release assay, adenylation activity with D-phenylglycine; details: for Formed PPi: substrate D-PG 1 mM
# Description: as §1, §2
# [7] = co-purified with MbtH-like protein VMbtH
# [8] = protein alone, without MbtH-like protein
# [9] = substrate D-hydroxyphenylglycine, co-purified with MbtH-like protein VMbtH
# [10] = substrate D-hydroxyphenylglycine, protein alone, without MbtH-like protein
# [11] = co-purified with MbtH-like protein Tcp 13
# [12] = co-purified with MbtH-like protein Tcp 17
# [13] = co-purified with MbtH-like protein Tcp13
# [14] = substrate D-HPG 0.1 mM, co-purified with MbtH-like protein Tcp 13
# [15] = substrate D-HPG 0.1 mM, co-purified with MbtH-like protein Tcp 17
# [16] = substrate D-HPG 0.1 mM, co-purified with MbtH-like protein VMbtH
# [17] = substrate D-HPG 1 mM, co-purified with MbtH-like protein Tcp 13
# [18] = substrate D-HPG 1 mM, co-purified with MbtH-like protein Tcp 17
# [19] = substrate D-HPG 1 mM, co-purified with MbtH-like protein VMbtH
# [20] = substrate D-hydroxyphenylglycine, co-purified with MbtH-like protein Tcp13
# [21] = substrate L-HPG 0.1 mM, co-purified with MbtH-like protein Tcp 13
# [22] = substrate L-HPG 0.1 mM, co-purified with MbtH-like protein Tcp 17
# [23] = substrate L-HPG 0.1 mM, co-purified with MbtH-like protein VMbtH
# [24] = substrate L-HPG 1 mM, co-purified with MbtH-like protein Tcp 13
# [25] = substrate L-HPG 1 mM, co-purified with MbtH-like protein Tcp 17
# [26] = substrate L-HPG 1 mM, co-purified with MbtH-like protein VMbtH
# [27] = co-purified with Tcp13, or Tcp17 or VMbtH
Substance,"adenylation activity (absorption 360 nm, PPi release assay) [1, 8]","adenylation activity (absorption 360 nm, PPi release assay) [2, 10]","adenylation activity (absorption 360 nm, PPi release assay) [3, 8]","adenylation activity (absorption 360 nm, PPi release assay) [4, 8]","Formed PPi [5, 11]","Formed PPi [5, 12]","Formed PPi [5, 7]","adenylation activity (absorption 360 nm, PPi release assay) [1, 13]","Formed PPi [2, 14]","Formed PPi [2, 15]","Formed PPi [2, 16]","Formed PPi [2, 17]","Formed PPi [2, 18]","Formed PPi [2, 19]","adenylation activity (absorption 360 nm, PPi release assay) [2, 20]","Formed PPi [3, 21]","Formed PPi [3, 22]","Formed PPi [3, 23]","Formed PPi [3, 24]","Formed PPi [3, 25]",further results
Dbv25_M1_A: purified adenylation domain of Dbv25 module M1 (SEQ ID NO: 2); Nonomuraea sp. ATCC 39727,No adenylation activity,No adenylation activity,No adenylation activity,No adenylation activity,,,,,,,,,,,,,,,,,"adenylation activity (absorption 360 nm, PPi release assay) [1, 7]: no activity; adenylation activity (absorption 360 nm, PPi release assay) [2, 9]: clear adenylation activity; adenylation activity (absorption 360 nm, PPi release assay) [3, 7]: clear adenylation activity; adenylation activity (absorption 360 nm, PPi release assay) [4, 7]: no activity"
"Veg8_M1_A: purified adenylation domain of Veg8 module M1 (SEQ ID NO: 6), maltose binding protein fusion, His-tag; uncultured soil bacterium",no activity,no activity,very minor adenylation activity,no activity,0.17 mM/min/mM enzyme,0.14 mM/min/mM enzyme,0.20 mM/min/mM enzyme,no activity,0.14 mM/min/mM enzyme,0.17 mM/min/mM enzyme,0.18 mM/min/mM enzyme,0.92 mM/min/mM enzyme,1.03 mM/min/mM enzyme,1.39 mM/min/mM enzyme,clear adenylation activity,0.56 mM/min/mM enzyme,0.70 mM/min/mM enzyme,0.61 mM/min/mM enzyme,0.59 mM/min/mM enzyme,0.64 mM/min/mM enzyme,"Formed PPi [3, 26]: 0.61 mM/min/mM enzyme; adenylation activity (absorption 360 nm, PPi release assay) [3, 13]: clear adenylation activity; adenylation activity (absorption 360 nm, PPi release assay) [4, 13]: no activity; Formed PPi [6, 11]: 0.01 mM/min/mM enzyme; Formed PPi [6, 12]: 0.02 mM/min/mM enzyme; Formed PPi [6, 7]: 0.02 mM/min/mM enzyme"
"Tcp9_M1_AT: purified adenylation thiolation didomain of Tcp9 (SEQ ID NO: 1 plus adjacent thiolation domain), MBP fusion, His-tag",No adenylation activity,No adenylation activity,No adenylation activity,No adenylation activity,1.32 mM/min/mM enzyme,1.44 mM/min/mM enzyme,2.32 mM/min/mM enzyme,no activity,2.07 mM/min/mM enzyme,1.71 mM/min/mM enzyme,3.72 mM/min/mM enzyme,5.28 mM/min/mM enzyme,4.63 mM/min/mM enzyme,8.44 mM/min/mM enzyme,clear adenylation activity,1.18 mM/min/mM enzyme,1.20 mM/min/mM enzyme,1.23 mM/min/mM enzyme,1.16 mM/min/mM enzyme,1.34 mM/min/mM enzyme,"Formed PPi [3, 26]: 1.40 mM/min/mM enzyme; adenylation activity (absorption 360 nm, PPi release assay) [3, 13]: clear adenylation activity; adenylation activity (absorption 360 nm, PPi release assay) [4, 13]: no activity; Formed PPi [6, 11]: 0.05 mM/min/mM enzyme; Formed PPi [6, 12]: 0.05 mM/min/mM enzyme; Formed PPi [6, 7]: 0.07 mM/min/mM enzyme"
Teg7_M1_A: purified adenylation domain of Teg7 module M1 (SEQ ID NO: 27); uncultured soil bacterium,No adenylation activity,No adenylation activity,No adenylation activity,No adenylation activity,,,,,,,,,,,,,,,,,"adenylation activity (PPi release assay) ([5]; substrate L-phenylglycine, co-purified with Tcp13, or Tcp17 or VMbtH): no adenylation activity; adenylation activity (PPi release assay) [1, 27]: no adenylation activity; adenylation activity (PPi release assay) ([2]; substrate D-hydroxyphenylglycine, co-purified with Tcp13, or Tcp17 or VMbtH): no adenylation activity; adenylation activity (PPi release assay) ([3]; co-purified with MbtH-like protein TMbtH): the same specificity; adenylation activity (PPi release assay) [3, 27]: no adenylation activity; adenylation activity (PPi release assay) [4, 27]: no adenylation activity; adenylation activity (PPi release assay) ([6]; substrate D-phenylglycine, co-purified with Tcp13, or Tcp17 or VMbtH): no adenylation activity"
StaA_M1_A: purified adenylation domain of StaA module M1 (SEQ ID NO: 3); Streptomyces toyocaensis,No adenylation activity,No adenylation activity,No adenylation activity,No adenylation activity,,,,,,,,,,,,,,,,,"adenylation activity (absorption 360 nm, PPi release assay) [1, 7]: no activity; adenylation activity (absorption 360 nm, PPi release assay) [2, 9]: clear adenylation activity; adenylation activity (absorption 360 nm, PPi release assay) [3, 7]: clear adenylation activity; adenylation activity (absorption 360 nm, PPi release assay) [4, 7]: no activity"
"Tcp11_M1_A: purified adenylation domain of Tcp11 module M1 (SEQ ID NO: 7), maltose binding protein fusion, His-tag; Actinoplanes teichomyceticus",No adenylation activity,No adenylation activity,No adenylation activity,No adenylation activity,0.17 mM/min/mM enzyme,0.23 mM/min/mM enzyme,0.09 mM/min/mM enzyme,no activity,0.08 mM/min/mM enzyme,0.11 mM/min/mM enzyme,0 mM/min/mM enzyme,0.66 mM/min/mM enzyme,0.63 mM/min/mM enzyme,0.86 mM/min/mM enzyme,clear adenylation activity,0.80 mM/min/mM enzyme,0.95 mM/min/mM enzyme,1.38 mM/min/mM enzyme,1.03 mM/min/mM enzyme,1.04 mM/min/mM enzyme,"Formed PPi [3, 26]: 1.54 mM/min/mM enzyme; adenylation activity (absorption 360 nm, PPi release assay) [3, 13]: clear adenylation activity; adenylation activity (absorption 360 nm, PPi release assay) [4, 13]: no activity; Formed PPi [6, 11]: 0 mM/min/mM enzyme; Formed PPi [6, 12]: 0.04 mM/min/mM enzyme; Formed PPi [6, 7]: 0 mM/min/mM enzyme"
